According to patent US11938138B2, “Methods for improved treatment of cancer” (Washington University, priority 2020, dated 2024):
“Also recorded” adds a separate entry of the source.

Key:
K562 cells [1] = assay: Cell cycle perturbation of K562 cells (DNA content, CD24, annexin V/PI); format: cell-based, human; details: five days, one-way ANOVA p<0.01 (FIG. 14H)
Experimental: (§1) CD24 surface protein was quantified using monoclonal human antibodies. Cells were spun down at 300 g for 3 minutes and washed twice with 1 mL of Cell Staining Buffer. The cell pellet was then resuspended in 50 μl of Cell Staining Buffer containing 0.2 μg of either CD24-APC or CD24-BV421. The tube was rotated at 4° C. in the dark for 30 minutes. After, cells were washed twice (as before) and finally resuspended in 200 μl of Cell Staining Buffer. Cells were excited with 450/45 and 660/20 lasers (wavelength/filter bandwidth, both in nm). For concomitant analysis of DNA content, we used CD24-APC. Cells were incubated with 10 μg/ml Hoechst 33342 in 5 mL of growth medium for 30 minutes prior to the staining protocol. For simultaneous assessment of apoptosis, cells were stained with CD24-BV421. After the final wash, instead of resuspending in 200 μl of Cell Staining Buffer, cells were washed twice with Annexin V Staining Buffer. Cells were then incubated in 50 μl Annexin V Staining Buffer containing 0.2 μg Annexin V-FITC and 100 μg/ml propidium iodide (PI). The reaction was incubated for 15 minutes at room temperature in the dark. Afterward, we added 150 μl of Annexin V Staining Buffer and proceeded to flow cytometry. All samples were measured on a Beckman-Coulter CytoFLEX S flow cytometer. Cells were excited with 450/45, 525/40, and 610/20 lasers. We collected 10,000 events per sample. The resulting data were processed with FlowJo Software for Mac Version 10.
We perturbed the cell cycle with lovastatin and nocodazole, two drugs classically used to synchronize cells in culture (Jackman and O'Connor, 2001), as well as the cyclin-dependent kinase inhibitors CVT-313 (Brooks et al., 1997) and RO-3306 (Vassilev et al., 2006). All drugs were dissolved in DMSO except nocodazole, which was dissolved in ethanol. […] Media was refreshed every 48 hours. After 36 hours of treatment, we stained for CD24 levels and nuclear DNA content. We gated for live, single cells using the forward scatter (FSC) and side scatter channels (SSC). Univariate cell cycle analysis was performed with FlowJo. We confirmed that all drugs perturbed cell cycle by altering the proportions of cells in either G1 or G2/M phase (FIG. 14G). […] Cultures remained under drug treatment until five days had elapsed, at which point we measured CD24 levels and stained for apoptosis (FIG. 14H). As before, we set gates to exclude debris to quantitate annexin V and PI, and measured CD24 in live cells gated on FSC and SSC. The G2 inhibitors, in particular, had very few cells in the FSC/SSC gate (typically below 5%).
For the analysis of annexin V levels in either JQ1- or DMSO-treated CD24^high and CD24^low cells, we used a three-way ANOVA with treatment, cell state, and day as independent variables. […] Multiple hypothesis correction was performed using Tukey's honestly significant difference. For the cell cycle inhibitor experiment, data were analyzed using a one-way ANOVA with Dunnett's post hoc test using either DMSO or EtOH (for RO-3306) as controls.

K562 cells [2] = assay: Imatinib treatment of K562 cells after JQ1 pretreatment (CD24, annexin V/PI staining); format: cell-based, human
Experimental: as §1, with “Cells were then incubated in 50 μl Annexin V Staining Buffer containing 0.2 μg Annexin V-FITC and 100 μg/ml propidium iodide (PI). The reaction was incubated for 15 minutes at room temperature in the dark. Afterward, we added 150 μl of Annexin V Staining Buffer and proceeded to flow cytometry.” left out, “Cells were excited with 450/45, 525/40, and 610/20 lasers. We collected 10,000 events per sample. The resulting data were processed with FlowJo Software for Mac Version 10.” left out
For the analysis of annexin V levels in either JQ1- or DMSO-treated CD24^high and CD24^low cells, we used a three-way ANOVA with treatment, cell state, and day as independent variables. […] For the cell cycle inhibitor experiment, data were analyzed using a one-way ANOVA with Dunnett's post hoc test using either DMSO or EtOH (for RO-3306) as controls.

K562 cells [3] = assay: JQ1 treatment of K562 cells, CD24 surface staining by flow cytometry; format: cell-based, human
Experimental: HCT-116, N2a, HEK293T, and HepG2 cells were cultured in Dulbecco's Modified Eagle Medium (DMEM) supplemented with 10% fetal bovine serum (FBS) and 1% of either penicillin-streptomycin or antibiotic-antimycotic. K562 (unless otherwise indicated) and OCM-1A cells were grown under the same conditions as described above, replacing DMEM with RPMI 1640 Medium. Cells were grown at 37° C. with 5% carbon dioxide (CO2). Media was replenished every 2 days. HepG2 cells were a gift from the Genome Engineering iPSC Center (GEiC) at Washington University in St. Louis School of Medicine. OCM-1A cells were a gift from Dr. Michael Onken. For the CD24^high/CD24^low cell state analyses, K562 cells were grown in IMDM containing 10% v/v FBS and 1% penicillin-streptomycin at 37° C. with 5% CO2. Frozen aliquots were thawed and passaged every 48 hours until they reached a maximum concentration of 800,000 cells/ml. For experiments, cells were seeded at mid-log phase concentrations, around 400,000 cells/ml. At this point, ratio of CD24^high/CD24^low cells was approximately 1:1, as determined by flow cytometry.
CD24 surface protein was quantified using monoclonal human antibodies. Cells were spun down at 300 g for 3 minutes and washed twice with 1 mL of Cell Staining Buffer. […] All samples were measured on a Beckman-Coulter CytoFLEX S flow cytometer. […]

MYC and CD24 mRNA = assay: qRT-PCR for MYC and CD24 expression in K562 cells treated with JQ1; format: cell-based, human; details: K562, 250 nM JQ1, first 24 hours (FIG. 14C)
Experimental: Cells were pelleted, resuspended in 300 μl of RNA CellProtect, and stored at −80° C. When we were ready to extract RNA, we thawed cells, prepared samples using QIAGEN RNEasy Plus Mini Kit, and quantitated with the Qubit RNA High Sensitivity kit. We reverse transcribed 500 ng of RNA with the SuperScript VILO cDNA Synthesis Kit in a 20 μl reaction, with the following thermocycling parameters: 25° C. for 10 minutes; 42° C. for 2 hours; 85° C. for 5 minutes. We then performed PCR with 2 μl of the RT product as template, 1 μl each of forward and reverse primer (10 μM), 6 μl ddH2O, and 10 μl PowerUp SYBR Green Master Mix. We ran the PCR on an ABI QuantStudio 3 with the following settings: 2 minutes at 50° C., then 2 minutes at 95° C. (hot start); 45 cycles of 95° C. for 15 s followed by 60° C. for 1 minute. We generated melt curves after each PCR and all samples yielded a single peak. Gene-specific primers were obtained from PrimerBank (Wang et al., 2012b). Data were normalized to the levels of […].

[4] = tested on: MNNG/HOS osteosarcoma cells; details: as single agent; cited from earlier work

In the case of `Cc1sc2c(c1C)C(c1ccc(Cl)cc1)=N[C@@H](CC(=O)OC(C)(C)C)c1nnc(C)n1-2` [JQ1], the “reduction in CD24high cells compared with cell cycle inhibitors” value (K562 cells [1]; 250 nM JQ1) is reported as “greatest reduction”, the “apoptosis compared with lovastatin, its closest competitor” value (K562 cells [1]; annexin V/PI) is reported as “significantly less apoptosis” and the “sensitivity of K562 cells to imatinib” value (K562 cells [2]; BET inhibitor pretreatment, then imatinib 1 μM) is reported as “sensitizes K562 cells to imatinib”. For the same compound, the “fraction of CD24high cells after pretreatment (mean)” value (K562 cells [2]; K562, 250 nM JQ1 for five days, DMSO group 54%) was 17%, the “time course of conversion to CD24low state” value (K562 cells [3]; K562, 250 nM JQ1, 7-day time course (FIG. 6D), rapid over first two days, stable at one week) was “plateaus at day four; also recorded: plateaued by day 4” and the “CD24low cells in the population after JQ1 exposure” value (K562 cells [3]; K562, 250 nM JQ1, 96 h (FIG. 6C), start equal proportions CD24high/CD24low) was > 95%. The “time of JQ1 exposure within which MYC mRNA levels fell” value (MYC and CD24 mRNA) was ≤ 3 h and the “tumor volume and weight” value [4] was “had no effect on either”.
